According to patent US6670364B2, “Antagonists of MCP-1 function and methods of use thereof” (Telik, Inc., priority 2001, dated 2003):
Counter-ions that a name gives are not always drawn.

Tested on: ICR male mice
Test: Thioglycollate-induced inflammation model (Example 18)
Type: in vivo
Conditions: 2 mg/kg s.c., repeated immediately after broth injection and 3 h later; peritoneal cavity at 72 h; mouse
Protocol: 3% Brewer's thioglycollate broth (Difco, Detroit, Mich.) was injected into the peritoneal cavity of ICR male mice, followed by subcutaneous administration of the test compound. The same dose of test compound was again administered immediately after the broth injection and 3 h later. After 72 h, the number of total elicited cells and MOMA2-positive cells in the peritoneal cavity was analyzed using an EPICS XL Beckman Coulter.

Row | Molecule | MOMA2-positive Cells (× 10^6) | Total Cells (× 10^6)
1 | Cc1nn(C)c2ncc(C(=O)NC(=O)Nc3ccc(C(=O)N4CCN(C)CC4)c(Cl)c3)c(N3CCN(C)CC3)c12 [Compound 97] | 4.1 ± 0.3 × 10^6 | 6.4 ± 0.6 × 10^6

Same assay, conditions: 10 mg/kg s.c., repeated immediately after broth injection and 3 h later; peritoneal cavity at 72 h; mouse

Row | Molecule | MOMA2-positive Cells (× 10^6) | Total Cells (× 10^6)
2 | Cc1nn(C)c2nc(N(C)CCN(C)C)c(C(=O)NC(=O)Nc3ccc(F)c(C(F)(F)F)c3)cc12 [Compound 116, (6-{[2-(Dimethylamino)ethyl]methylamino}-1,3-dimethylpyrazolo[5,4-b]-pyridin-5-yl)-N-({[4-fluoro-3-(trifluoromethyl)phenyl]amino}carbonyl)-carboxamide hydrochloride] | 3.0 ± 0.8 × 10^6 | 4.2 ± 1.1 × 10^6
3 | Cc1nn(C)c2nc(N(C)CCN(C)C)c(C(=O)NC(=O)Nc3cccc(OC(C)C)c3)cc12 [Compound 140] | 5.2 ± 0.6 × 10^6 | 7.3 ± 1.1 × 10^6

Tested on: female Lewis rats
Test: Collagen-induced arthritis model in rat, p.o. (Example 24)
Type: in vivo
Conditions: 2 mg/kg p.o. twice a day from day 0
Protocol: Collagen-induced arthritis was induced in female Lewis rats as follows. Rats were injected subcutaneously with the emulsion of bovine collagen type 11 (3.3 mg/kg at day 0 and 1.67 mg/kg at day 7) and complete Freund's adjuvant (CFA) at the base of the tail at day 0 and immunized additionally at day 7. The test compounds were administered p.o. at day 0 and then twice a day for 21 days or 3 times a week until day 21 was also administered p.o. from day 13 to day 21 in another group. Paw swelling was measured by the increased volume of the legs using a plethysmometer.

Row | Molecule | Percent Swelling day 14 [%] | Percent Swelling day 21 [%]
4 | Cc1nn(C)c2nc(N(C)CCN(C)C)c(C(=O)NC(=O)Nc3cccc(OC(C)C)c3)cc12 [Compound 140] | 14.2 ± 3.3 | 49.2 ± 14.1

Same assay, conditions: 10 mg/kg p.o. from day 13 to day 21

Row | Molecule | Percent Swelling day 14 [%] | Percent Swelling day 21 [%]
5 | Cc1nn(C)c2nc(N(C)CCN(C)C)c(C(=O)NC(=O)Nc3cccc(OC(C)C)c3)cc12 [Compound 140] | 10.1 ± 1.6 | 73.5 ± 6.3

Same assay, conditions: 10 mg/kg p.o. twice a day from day 0

Row | Molecule | Percent Swelling day 14 [%] | Percent Swelling day 21 [%]
6 | Cc1nn(C)c2nc(N(C)CCN(C)C)c(C(=O)NC(=O)Nc3cccc(OC(C)C)c3)cc12 [Compound 140] | 7.5 ± 1.0 | 28.0 ± 6.4

Biological target: hMCP-1 (Homo sapiens, UniProt P13500)
Test: Inhibition of MCP-1-induced chemotaxis (48-well chamber, Example 21)
Type: cell-based
Parameters: purchased PeproTech
Conditions: THP-1 cells, 2.5 nM hMCP-1, 48-well chamber, 2 hr
Protocol: A 48-well microchemotaxis chamber with a 5 μm-pore size, PVP-coated polycarbonate filter membrane (Neuro Probe Inc., Cabin John, Md.) was used for testing. Compounds were prepared as 10 mM stock solution in DMSO. THP-1 cells were washed with RPMI 1640 medium supplemented with 0.5% BSA and 25 mM HEPES, pH 7.4, and suspended at a density of 4×10^6 cells/mL in the same medium. A 150 μL aliquot of this suspension was treated with an equal volume of test compound solution and the mixture incubated at 37° C. for 15 min. The lower chamber was loaded with 26 μL of a 2.5 nM solution of hMCP-1 (PeproTech) in medium. The filter membrane was placed over the lower chamber, followed by a silicon rubber gasket and the upper chamber. A 50 μL aliquot of the THP-1 cell suspension containing the test compound was added to the upper chamber and the assembly incubated in a 5% CO2 atmosphere at 37+ C. for 2 hr. The chamber was then disassembled and the cells remaining on the upper surface of the filter were scrapped off with a rubber scrapper. The filter was fixed with methanol, stained with Diff-Quik solution, and mounted on a slide glass. The cells that had migrated across the filter onto the lower surface were then counted by microscopic observation.

Chain of hMCP-1 (P13500 24-99): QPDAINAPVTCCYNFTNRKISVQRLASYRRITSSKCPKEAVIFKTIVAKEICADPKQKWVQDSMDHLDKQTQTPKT

Row | Molecule | IC50 [µM]
7 | Cc1nn(C)c2ncc(C(=O)NC(=O)Nc3ccc(Cl)c(C(=O)N4CCOCC4)c3)c(N3CCN(C)CC3)c12 [Compound 95] | 1.9
8 | Cc1nn(C)c2ncc(C(=O)NC(=O)Nc3cc(C(F)(F)F)cc(C(F)(F)F)c3)c(N3CCN(C)CC3)c12 [Compound 91] | 3
9 | Cc1nn(C)c2ncc(C(=O)NC(=O)Nc3cccc(OC(C)C)c3)c(N3CCN(C)CC3)c12 [Compound 75] | 0.7
10 | Cc1nn(C)c2ncc(C(=O)NC(=O)Nc3ccc(Cl)c(C(=O)OC(C)C)c3)c(N3CCN(C)CC3)c12 [Compound 92] | 2.1
11 | Cc1nn(C)c2ncc(C(=O)NC(=O)Nc3cccc(-c4ccccc4)c3)c(N3CCN(C)CC3)c12 [Compound 80] | 4
12 | Cc1nn(C)c2ncc(C(=O)NC(=O)Nc3ccc(F)c(C(F)(F)F)c3)c(N(CCO)CCO)c12 [Compound 51, {4-[Bis(2-hydroxyethyl)amino]-1,3-dimethylpyrazolo[5,4-b]pyridin-5-yl}-N-({[4-fluoro-3-(trifluoromethyl)phenyl]amino}carbonyl)carboxamide] | 1.6
13 | Cc1nn(C)c2ncc(C(=O)NC(=O)Nc3cccc(-c4nccs4)c3)c(N3CCN(C)CC3)c12 [Compound 78] | 0.9
14 | Cc1nn(C)c2ncc(C(=O)NC(=O)Nc3ccc(F)c(C(F)(F)F)c3)c(NCCC34CCCN3CCC4)c12 [Compound 60, {1,3-Dimethyl-4-[(2-perhydropyrrolizin-7a-ylethyl)amino]pyrazolo[5,4-b]pyridin-5-yl}-N-({[4-fluoro-3-(trifluoromethyl)phenyl]amino}carbonyl)carboxamide hydrochloride] | 1.2
15 | [4-(4-Ethylpiperazinyl)-1,3-dimethylpyrazolo[5,4-b]pyridin-5-yl]-N-({[4-fluoro-3-(trifluoromethyl)phenyl]amino}carbonyl)carboxamide hydrochloride [Compound 100] | 0.38
16 | Cc1nn(C)c2ncc(C(=O)NC(=O)Nc3ccc(C(=O)N4CCOCC4)c(Cl)c3)c(N3CCN(C)CC3)c12 [Compound 94] | 1.2
17 | Cc1nn(C)c2ncc(C(=O)NC(=O)Nc3cccc(C(C)C)c3)c(N3CCN(C)CC3)c12 [Compound 74] | 4
18 | Cc1nn(C)c2ncc(C(=O)NC(=O)Nc3ccc(F)c(C(F)(F)F)c3)c(NCCN(C)C)c12 [Compound 46, (4-{[2-(Dimethylamino)ethyl]amino}-1,3-dimethylpyrazolo[5,4-b]pyridin-5-yl)-N-({[4-fluoro-3-(trifluoromethyl)phenyl]amino}carbonyl)carboxamide hydrochloride] | 2
19 | Cc1nn(C)c2ncc(C(=O)NC(=O)Nc3ccc(C(=O)O)c(OC(C)C)c3)c(N3CCN(C)CC3)c12 [Compound 76] | 4
20 | Cc1nn(C)c2ncc(C(=O)NC(=O)Nc3ccc(C(=O)N4CCN(C)CC4)c(Cl)c3)c(N3CCN(C)CC3)c12 [Compound 97] | 1.1
21 | Cc1nn(C)c2ncc(C(=O)NC(=O)Nc3ccc(F)c(C(F)(F)F)c3)c(-[n+]3ccc(N)cc3)c12 [Compound 106, 4-Amino-1-{5-[N-({[4-fluoro-3-(trifluoromethyl)phenyl]amino}carbonyl)carbamoyl]-1,3-dimethylpyrazolo[5,4-b]pyridin-4-yl}pyridinium chloride] | 0.4
22 | Cc1nn(C)c2ncc(C(=O)NC(=O)Nc3cccc(Br)c3)c(N3CCN(C)CC3)c12 [Compound 69] | 4
23 | Cc1nn(C)c2ncc(C(=O)NC(=O)Nc3ccc(F)c(C(F)(F)F)c3)c(NCc3ccccc3)c12 [Compound 61] | 20

Second part, the molecule after the results:

Row | IC50 [µM] | Molecule
24 | 0.7 | Cc1nn(C)c2ncc(C(=O)NC(=O)Nc3cccc(OC(F)(F)F)c3)c(N3CCN(C)CC3)c12 [Compound 77]
25 | 4 | Cc1nn(C)c2ncc(C(=O)NC(=O)Nc3cc(O)cc(C(F)(F)F)c3)c(N3CCN(C)CC3)c12 [Compound 89]
26 | 7.7 | Cc1nn(C)c2ncc(C(=O)NC(=O)Nc3ccc(F)c(C(F)(F)F)c3)c(O)c12 [Compound 43, N-({[4-fluoro-3-(trifluoromethyl)phenyl]amino}carbonyl)(4-hydroxy-1,3-dimethylpyrazolo[5,4-b]pyridin-5-yl)carboxamide]
27 | 1.7 | Cc1nn(C)c2ncc(C(=O)NC(=O)Nc3cccc(C(F)(F)F)c3)c(N3CCN(C)CC3)c12 [Compound 73]
28 | 2 | Cc1nn(C)c2ncc(C(=O)NC(=O)Nc3ccc(F)c(C(F)(F)F)c3)c(N3CCCCC3)c12 [Compound 64, (1,3-Dimethyl-4-piperidylpyrazolo[5,4-b]pyridin-5-yl)-N-({[4-fluoro-3-(trifluoromethyl)-phenyl]amino}carbonyl)carboxamide]
29 | 3.6 | Cc1nn(C)c2ncc(C(=O)NC(=O)Nc3cccc(C(F)(F)F)c3)c(N3CCN(C)CC3)c12 [Compound 72]
30 | 4 | Cc1ccc(NC(=O)NC(=O)c2cnc3c(c(C)nn3C)c2N2CCN(C)CC2)cc1C(F)(F)F [Compound 83]
31 | 8.2 | Cc1nn(C)c2ncc(C(=O)NC(=O)Nc3ccc(F)c(C(F)(F)F)c3)c(N(C)C)c12 [Compound 44, [4-(Dimethylamino)-1,3-dimethylpyrazolo[5,4-b]pyridin-5-yl]-N-({[4-fluoro-3-(trifluoromethyl)phenyl]amino}carbonyl)carboxamide]
32 | 4 | Cc1nn(C)c2ncc(C(=O)NC(=O)Nc3ccc(O)c(C(F)(F)F)c3)c(N3CCN(C)CC3)c12 [Compound 87]
33 | 10 | Cc1nn(C)c2ncc(C(=O)NC(=O)Nc3ccc(F)c(C(F)(F)F)c3)c(N3CCOCC3)c12 [Compound 65, (1,3-Dimethyl-4-morpholin-4-ylpyrazolo[5,4-b]pyridin-5-yl)-N-({[4-fluoro 3-(trifluoromethyl)phenyl]amino}carbonyl)carboxamide]
34 | 4 | Cc1nn(C)c2ncc(C(=O)NC(=O)Nc3ccc(Cl)c(Cl)c3)c(N3CCN(C)CC3)c12 [Compound 71]
35 | 1.8 | Cc1nn(C)c2ncc(C(=O)NC(=O)Nc3ccc(F)c(C(F)(F)F)c3)c(N3CCNCC3)c12 [Compound 67]
36 | 2 | Cc1nn(C)c2ncc(C(=O)NC(=O)Nc3ccc(F)c(C(F)(F)F)c3)c(N3CCCN(C)CC3)c12 [Compound 108, [1,3-Dimethyl-4-(4-methyl(1,4-diazaperhydroepinyl))pyrazolo[5,4-b]pyridin-5-yl]-N-({[4-fluoro-3-(trifluoromethyl)phenyl]amino}carbonyl)carboxamide hydrochloride]
37 | 2 | Cc1nn(C)c2ncc(C(=O)NC(=O)Nc3ccc(F)c(C(F)(F)F)c3)c(N3CCN(c4ccccc4)CC3)c12 [Compound 103, [1,3-Dimethyl-4-(4-phenylpiperazinyl)pyrazolo[5,4-b]pyridin-5-yl]-N-({[4-fluoro-3-(trifluoromethyl)phenyl]amino}carbonyl)carboxamide]
38 | 4 | Cc1nn(C)c2ncc(C(=O)NC(=O)Nc3ccc(Cl)cc3)c(N3CCN(C)CC3)c12 [Compound 70]
39 | 4 | Cc1nn(C)c2ncc(C(=O)NC(=O)Nc3cccc(Cl)c3)c(N3CCN(C)CC3)c12 [Compound 68]
